Results on 17 compounds are retold here after US6160011A (priority 1998, dated 2000).

One may read the Ki as the dissociation constant of the complex between target and ligand, obtained from inhibition or displacement. The term Kd denotes a measure of binding affinity in units of concentration. A high value points to weaker binding.

Like-named read-outs stand apart in the source and are kept apart here.

For data set [1] the following is noted: oral administration; cited from earlier work.
For data set [2], the target named is T1, cytosolic androgen receptor (AR) (Rattus norvegicus, UniProt P15207).
T1 construct: The supernatant (cytosol) containing AR protein was removed and stored; from tissue; host or cells: ventral prostate cytosol of castrated male Sprague-Dawley rats
T1 sequence (P15207 1-902): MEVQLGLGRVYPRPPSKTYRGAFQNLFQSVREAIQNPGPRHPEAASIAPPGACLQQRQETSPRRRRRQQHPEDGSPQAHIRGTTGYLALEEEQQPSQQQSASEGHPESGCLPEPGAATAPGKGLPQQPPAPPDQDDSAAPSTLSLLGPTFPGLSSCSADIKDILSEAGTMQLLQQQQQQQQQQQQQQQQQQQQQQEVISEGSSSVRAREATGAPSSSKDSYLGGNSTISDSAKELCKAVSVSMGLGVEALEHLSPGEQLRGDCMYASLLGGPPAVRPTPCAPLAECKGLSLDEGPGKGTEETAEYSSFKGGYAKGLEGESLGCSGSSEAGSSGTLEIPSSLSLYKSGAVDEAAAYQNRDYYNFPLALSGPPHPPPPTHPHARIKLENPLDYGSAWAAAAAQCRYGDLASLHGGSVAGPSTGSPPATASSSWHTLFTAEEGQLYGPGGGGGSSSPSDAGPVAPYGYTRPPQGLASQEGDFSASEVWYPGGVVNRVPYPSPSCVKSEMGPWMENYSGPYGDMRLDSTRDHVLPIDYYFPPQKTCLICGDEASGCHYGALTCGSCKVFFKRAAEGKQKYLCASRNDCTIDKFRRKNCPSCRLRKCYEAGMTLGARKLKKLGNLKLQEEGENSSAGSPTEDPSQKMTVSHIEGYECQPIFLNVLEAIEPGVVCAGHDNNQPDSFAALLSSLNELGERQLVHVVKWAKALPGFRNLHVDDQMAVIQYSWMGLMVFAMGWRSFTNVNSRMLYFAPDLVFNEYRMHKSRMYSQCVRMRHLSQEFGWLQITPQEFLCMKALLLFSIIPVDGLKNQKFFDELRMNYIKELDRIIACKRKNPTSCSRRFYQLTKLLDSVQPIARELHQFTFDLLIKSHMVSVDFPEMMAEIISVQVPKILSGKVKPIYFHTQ
Briefly: biochemical. Type of data set: binding, Sprague-Dawley rats.

Data set [3] has as its system AR (plasmid pCMVhAR) in CV-1 cells. In words: Transcriptional activation (AR-mediated luciferase reporter, cotransfected CV-1 cells). Type of data set: cell-based. To be noted: for minimal effective concentration: read-out: Potency: lowest concentration of the ligand capable of maximally stimulating AR-mediated transcription. As for the experimental part:
The agonist activity of each ligand was examined using transfected CV-1 cells (American Type Culture Collection, Rockville, Md.). CV-1 cells were maintained in DMEM containing 10% FBS at 37° C. in a humidified atmosphere containing 5% carbon dioxide. DMEM without phenol red was used during transfection studies. One day before transfection, monolayer cells were removed from flasks and plated at a density of 4.5×10^5 cells/well in 6-well tissue culture plates. Cells in each well were then cotransfected with 100 ng of an AR expression vector (plasmid pCMVhAR; provided by Dr. Elizabeth Wilson at The University of North Carolina, Chapel Hill, N.C.), 2.5 μg of a luciferase reporter vector (plasmid pMMTV-Luc; provided by Dr. Ronald Evans at The Salk Institute, San Diego, Calif.), and 2.5 μg of a control β-galactosidase vector (plasmid pSV-β-galactosidase; Promega Corporation, Madison, Wis.). Transfection was performed using Lipofectamine™ according to the manufacturer's instructions (Life Technologies, Gaithersburg, Md.). Ten hours after adding the transfection reagent, cells were washed twice with DMEM containing 0.2% FBS and then returned to the incubator. After an additional 10 to 12 hours of incubation, the medium was removed and replaced with DMEM containing 0.2% FBS and various concentrations of DHT or the ligand of interest. Final ligand concentrations were 0.1, 1, 10, 50, 100, 500, and 1,000 nM. The drug-containing medium was replaced after 24 hours of incubation to minimize the possible effects of ligand degradation on measurement of transcriptional activation. Control studies in which neither DHT nor ligand were added to the medium were also performed. Cells were washed with phosphate buffered saline, pH 7.4, after 48 hours of drug treatment and harvested using 350 μL of reporter lysis buffer (Promega Corporation, Madison, Wis.). Cell lysates were transferred to a microcentrifuge tube, vortexed briefly, and centrifuged at 12,000 g for 2 minutes; An aliquot (150 μL) of supernatant was used for determination of β-galactosidase activity in each well using a spectrophotometer (Cary Model 1E, Varian Associates, Sunnyvale, Calif.) set at a wavelength of 420 nm. A separate aliquot (100 μL) was used for determination of luciferase activity assay (Luciferase Assay System, Promega Corporation, Madison, Wis.) using an automated luminometer (Model AutoLumat LB953, Wallac Inc., Gaithersburg, Md.). Viable cell numbers and transfection efficiency in each well were normalized by expressing the transcriptional activation as a ratio of the luciferase activity to β-galactosidase activity in individual wells. […] All experiments were performed in triplicate. Potency was reported as the lowest concentration of the ligand used during transfection experiments capable of producing maximal AR-mediated transcriptional activation.
In general terms: Reporter assays use an easily measured gene product as a stand-in for the process of interest.

The next data set concerns AR. Briefly: Covalent (irreversible) binding to the AR. Conditions: studies not described.
The target of data set [4] is T1, cytosolic androgen receptor (AR). In words: Saturation binding of 3H-MIB to AR in cytosol (Scatchard). On the set-up: species or system Sprague-Dawley rats. Conditions: mean±S.D., n=3; 4° C., 18 hours.
For data set [5] the following is noted: cited from earlier work.
A further data set relates to sperm production in men. Conditions: cited from earlier work.
In data set [6] the test system is androgen receptor (in vivo functional activity). Conditions: vs other antiandrogen therapies; cited from earlier work.
The mark [7] stands for this setting: 3H-MIB 1 nM, 4° C., 18 hours, R-isomers of C-1 to C-5, read-out: Ki (Table 1).
The mark [8] stands for this setting: CV-1, 48 h, read-out: Agonist Activity (% of DHT): maximal percentage of transcriptional activation observed for each ligand.
The mark [9] stands for this setting: healthy male volunteers, single oral dose of the racemic mixture.
Where [10] appears, read: CV-1, read-out: agonist activity.

For the compound `C[C@]12CC[C@H]3[C@@H](CCC4=CC(=O)CC[C@@]43C)[C@@H]1CC[C@@H]2O` [testosterone], the “oral absorption / androgenic effect (in words)” value in data set [1] is given as “readily absorbed after oral administration, but demonstrates little androgenic effect due to rapid hepatic metabolism”.
As to `CC(=O)Nc1ccc(S(=O)(=O)C[C@](C)(O)C(=O)Nc2ccc(C#N)c(C(F)(F)F)c2)cc1` [C-7], in data set [2], the affinity, expressed as Ki, was 1.7 nM and the “RBA (%): (IC50 of DHT)/(IC50 of a ligand)*100%” value (“RBA (%)” for short) is 15.9%.
With `C[C@](O)(CI)C(=O)Nc1ccc([N+](=O)[O-])c(C(F)(F)F)c1` [C-5], the Ki in data set [2] (setting [7]) amounted to 0.86 ± 0.11 nM. Also, the Emax in data set [3] (setting [8]) was 88.6 ± 18%. Also, the minimal effective concentration in data set [3] (CV-1, 48 h) was determined as 0.5 µM.
On to `C[C@]12CCC(=O)C[C@@H]1CC[C@@H]1[C@@H]2CC[C@]2(C)[C@@H](O)CC[C@@H]12` [DHT, dihydrotestosterone, reference compound], for which the Emax in data set [3] (setting [8]) is 100%.
With `C[C@](O)(CSc1ccc(NC(=O)CCl)cc1)C(=O)Nc1ccc(C#N)c(C(F)(F)F)c1` [C-1 (R)], in the data set on AR, the “covalent (irreversible) binding to AR” value is on record as “does not covalently (i.e., irreversibly) bind the AR”.
In the case of `CCC(=O)N(C(=O)CC)c1ccc(SC[C@](C)(O)C(=O)Nc2ccc(C#N)c(C(F)(F)F)c2)cc1` [C-11], in data set [2], the Ki is > 1000 nM and the “RBA (%)” value was < 0.10%.
In turn, `C[C@@H]1CC2=CC(=O)CC[C@@H]2[C@H]2CC[C@@]3(C)[C@@H](CC[C@]3(C)O)[C@@H]21` [3H-MIB, (17α-methyl-^3 H)-Mibolerone] showed a Kd in data set [4] of 0.19 ± 0.01 nM.
In the case of `CCC(=O)Nc1ccc(SC[C@](C)(O)C(=O)Nc2ccc(C#N)c(C(F)(F)F)c2)cc1` [C-10], in data set [2], the Ki was 3.81 nM and the “RBA (%)” value was 7.08%.
With `C[C@@](O)(CS(=O)(=O)c1ccc(F)cc1)C(=O)Nc1ccc(C#N)c(C(F)(F)F)c1` [S-Casodex], the “elimination half-life (t1/2)” value in data set [5] (setting [9]) was 19 h.
Consider `CCCCCCC(=O)O[C@H]1CC[C@H]2[C@@H]3CCC4=CC(=O)CC[C@]4(C)[C@H]3CC[C@]12C` [testosterone enanthate], for which the “testosterone peak levels after injection (in words)” value in the data set with sperm production in men (immediately following intramuscular injection) is recorded as “supraphysiologic peak levels of testosterone”. Moreover, in the data set with sperm production in men (weekly intramuscular injections, WHO report), the “azoospermia or severe oligospermia (less than 3 million sperm per ml) and infertility, share of men” value is 98%.
As to `CC(=O)Nc1ccc(SC[C@@](C)(O)C(=O)Nc2ccc(C#N)c(C(F)(F)F)c2)cc1` [C-8 (S)], in data set [2], the Ki turned out to be 141 nM and the “RBA (%)” value was found to be 0.19%.
Regarding `CC(O)(CS(=O)(=O)c1ccc(F)cc1)C(=O)Nc1ccc(C#N)c(C(F)(F)F)c1` (racemic) [Casodex], the oral absorption result in data set [5] (after oral administration) is given as “well absorbed after oral administration”. The biological half-life in data set [5] (in man) is 6 days. Also, the “tolerance (in words)” value in data set [6] is “improved tolerance”.
In the case of `CC(=O)Nc1ccc(SC[C@](C)(O)C(=O)Nc2ccc(C#N)c(C(F)(F)F)c2)cc1` [C-8 (R)], in data set [2], the affinity, expressed as Ki, was 1 nM and the “RBA (%)” value worked out at 26.9%.
As for `C[C@](O)(CBr)C(=O)Nc1ccc(C#N)c(C(F)(F)F)c1` [C-2], the Ki in data set [2] (setting [7]) turned out to be 7.98 ± 0.86 nM. In addition, the values for the Emax in data set [3] (setting [8]) and in data set [3] (setting [10]) were 18.5 ± 5.08% and < 20%, respectively. In addition, the minimal effective concentration in data set [3] (CV-1, 48 h) is 0.5 µM.
Regarding `C[C@](O)(CS(=O)(=O)c1ccc(F)cc1)C(=O)Nc1ccc(C#N)c(C(F)(F)F)c1` [R-Bicalutamide, reference compound], in data set [3], the “AR-mediated transcriptional activation (in words)” value is on record as “unable to stimulate AR-mediated transcriptional activation at even the highest concentrations tested”. In addition, in data set [3] (setting [8]), the Emax worked out at 8.28 ± 2.66%. In data set [3] (CV-1, read-out: mean agonist activity at 1,000 nM), the Emax at 1 µM came to 8.3%. Also, the elimination half-life in data set [5] (setting [9]) was 4.2 days.
Regarding `C[C@](O)(CI)C(=O)Nc1ccc(C#N)c(C(F)(F)F)c1` [C-4], in data set [2] (setting [7]), the Ki is 2.79 ± 1.35 nM. Moreover, the Emax was 20.5 ± 7.57% in data set [3] (setting [8]) and < 20% in data set [3] (setting [10]). Further, the minimal effective concentration in data set [3] (CV-1, 48 h) amounted to 0.5 µM.
For `CC(=O)N(C(C)=O)c1ccc(SC[C@](C)(O)C(=O)Nc2ccc(C#N)c(C(F)(F)F)c2)cc1` [C-9], in data set [2], the Ki was 2.64 nM and the “RBA (%)” value is 10.2%.
